Assay results: ChEMBL document CHEMBL3885881, “DrugMatrix”

Species: Rattus norvegicus
Experiment: DrugMatrix - Regimen: Daily Repeat
Assay type: toxicity, organism-based, Sprague-Dawley
Parameters: regimen Daily Repeat, gender Male, age 6-8 weeks
Details: in vivo, iv, vehicle 100 % SALINE; for ABSOLUTE BASOPHIL / ABSOLUTE EOSINOPHIL / ABSOLUTE LYMPHOCYTE / ABSOLUTE MONOCYTE / ABSOLUTE SEGMENTED NEUTROPHIL / BASOPHIL / EOSINOPHIL / ERYTHROCYTE COUNT / HEMATOCRIT / HEMOGLOBIN / LEUKOCYTE COUNT / LYMPHOCYTE / MEAN CORPUSCULAR HEMOGLOBIN / MEAN CORPUSCULAR HEMOGLOBIN CONCENTRATION / MEAN CORPUSCULAR VOLUME / MONOCYTE / NEUTROPHIL / NUCLEATED RED BLOOD CELLS / PLATELET COUNT: tissue Blood; for ALANINE AMINOTRANSFERASE / ALBUMIN / ALKALINE PHOSPHATASE / ASPARTATE AMINOTRANSFERASE / BLOOD UREA NITROGEN / CARBON DIOXIDE / CHLORIDE / CHOLESTEROL / CREATINE PHOSPHOKINASE / CREATININE / GLUCOSE / LACTATE DEHYDROGENASE / LIPASE / PHOSPHORUS / POTASSIUM / SODIUM / TOTAL BILIRUBIN / TOTAL PROTEIN / URIC ACID: tissue Plasma
[1] = 5 mg/kg, 72 h, dose level Low, time 3 day
[2] = 5 mg/kg, 120 h, dose level Low, time 5 day
[3] = 30 mg/kg, 72 h, dose level High, time 3 day
[4] = 30 mg/kg, 120 h, dose level High, time 5 day

## CNC1(c2ccccc2Cl)CCCCC1=O (configuration not stated) [KETAMINE]
[1]
  ABSOLUTE BASOPHIL: 0 CELLS/uL
  ABSOLUTE EOSINOPHIL: 51.33 CELLS/uL
  ABSOLUTE LYMPHOCYTE: 14067.33 CELLS/uL
  ABSOLUTE MONOCYTE: 102.67 CELLS/uL
  ABSOLUTE SEGMENTED NEUTROPHIL: 1912 CELLS/uL
  BASOPHIL: 0%
  EOSINOPHIL: 0.33%
  ERYTHROCYTE COUNT: 5.81 x10E6/uL
  HEMATOCRIT: 36.67%
  HEMOGLOBIN: 14.57 G/DL
  LEUKOCYTE COUNT: 16.13 x10E3/uL
  LYMPHOCYTE: 87%
  MEAN CORPUSCULAR HEMOGLOBIN: 25.1 pg
  MEAN CORPUSCULAR HEMOGLOBIN CONCENTRATION: 39.73 G/DL
  MEAN CORPUSCULAR VOLUME: 63.13 fL
  MONOCYTE: 0.67%
  NEUTROPHIL: 12%
  NUCLEATED RED BLOOD CELLS: 0 /100WBC
  PLATELET COUNT: 1224 x10E3/uL
  ALANINE AMINOTRANSFERASE: 65.67 u/L
  ALBUMIN: 4.37 G/DL
  ALKALINE PHOSPHATASE: 476.33 u/L
  ASPARTATE AMINOTRANSFERASE: 112 u/L
  BLOOD UREA NITROGEN: 16.67 mg/dL
  CARBON DIOXIDE: 24.33 mmol/L
  CHLORIDE: 102.33 MEQ/L
  CHOLESTEROL: 77 mg/dL
  CREATINE PHOSPHOKINASE: 659.67 u/L
  CREATININE: 0.19 mg/dL
  GLUCOSE: 151 mg/dL
  LACTATE DEHYDROGENASE: 281 u/L
  LIPASE: 8.67 u/L
  PHOSPHORUS: 13.03 mg/dL
  POTASSIUM: 6.82 MEQ/L
  SODIUM: 147.17 MEQ/L
  TOTAL BILIRUBIN: 0.2 mg/dL
  TOTAL PROTEIN: 6.1 G/DL
  URIC ACID: 1.77 mg/dL
[2]
  ABSOLUTE BASOPHIL: 0 CELLS/uL
  ABSOLUTE EOSINOPHIL: 0 CELLS/uL
  ABSOLUTE LYMPHOCYTE: 13962.33 CELLS/uL
  ABSOLUTE MONOCYTE: 431.67 CELLS/uL
  ABSOLUTE SEGMENTED NEUTROPHIL: 1839.33 CELLS/uL
  BASOPHIL: 0%
  EOSINOPHIL: 0%
  ERYTHROCYTE COUNT: 5.58 x10E6/uL
  HEMATOCRIT: 35.2%
  HEMOGLOBIN: 13.8 G/DL
  LEUKOCYTE COUNT: 16.23 x10E3/uL
  LYMPHOCYTE: 86%
  MEAN CORPUSCULAR HEMOGLOBIN: 24.77 pg
  MEAN CORPUSCULAR HEMOGLOBIN CONCENTRATION: 39.27 G/DL
  MEAN CORPUSCULAR VOLUME: 63.1 fL
  MONOCYTE: 2.67%
  NEUTROPHIL: 11.33%
  NUCLEATED RED BLOOD CELLS: 0 /100WBC
  PLATELET COUNT: 1165.33 x10E3/uL
  ALANINE AMINOTRANSFERASE: 62.33 u/L
  ALBUMIN: 4 G/DL
  ALKALINE PHOSPHATASE: 365.67 u/L
  ASPARTATE AMINOTRANSFERASE: 75.67 u/L
  BLOOD UREA NITROGEN: 16 mg/dL
  CARBON DIOXIDE: 23.67 mmol/L
  CHLORIDE: 103 MEQ/L
  CHOLESTEROL: 71 mg/dL
  CREATINE PHOSPHOKINASE: 194 u/L
  CREATININE: 0.14 mg/dL
  GLUCOSE: 158.33 mg/dL
  LACTATE DEHYDROGENASE: 81 u/L
  LIPASE: 8.33 u/L
  PHOSPHORUS: 11.53 mg/dL
  POTASSIUM: 6.9 MEQ/L
  SODIUM: 144.5 MEQ/L
  TOTAL BILIRUBIN: 0.2 mg/dL
  TOTAL PROTEIN: 6.03 G/DL
  URIC ACID: 1.43 mg/dL
[3]
  ABSOLUTE BASOPHIL: 0 CELLS/uL
  ABSOLUTE EOSINOPHIL: 0 CELLS/uL
  ABSOLUTE LYMPHOCYTE: 14382.67 CELLS/uL
  ABSOLUTE MONOCYTE: 155.33 CELLS/uL
  ABSOLUTE SEGMENTED NEUTROPHIL: 1995.33 CELLS/uL
  BASOPHIL: 0%
  EOSINOPHIL: 0%
  ERYTHROCYTE COUNT: 5.41 x10E6/uL
  HEMATOCRIT: 34.6%
  HEMOGLOBIN: 13.7 G/DL
  LEUKOCYTE COUNT: 16.53 x10E3/uL
  LYMPHOCYTE: 87.33%
  MEAN CORPUSCULAR HEMOGLOBIN: 25.3 pg
  MEAN CORPUSCULAR HEMOGLOBIN CONCENTRATION: 39.6 G/DL
  MEAN CORPUSCULAR VOLUME: 63.93 fL
  MONOCYTE: 1%
  NEUTROPHIL: 11.67%
  NUCLEATED RED BLOOD CELLS: 0 /100WBC
  PLATELET COUNT: 1095 x10E3/uL
  ALANINE AMINOTRANSFERASE: 62.67 u/L
  ALBUMIN: 4.23 G/DL
  ALKALINE PHOSPHATASE: 372.33 u/L
  ASPARTATE AMINOTRANSFERASE: 96.67 u/L
  BLOOD UREA NITROGEN: 17 mg/dL
  CARBON DIOXIDE: 19 mmol/L
  CHLORIDE: 101.67 MEQ/L
  CHOLESTEROL: 72.67 mg/dL
  CREATINE PHOSPHOKINASE: 366.67 u/L
  CREATININE: 0.23 mg/dL
  GLUCOSE: 202.67 mg/dL
  LACTATE DEHYDROGENASE: 284.33 u/L
  LIPASE: 10 u/L
  PHOSPHORUS: 13.57 mg/dL
  POTASSIUM: 5.66 MEQ/L
  SODIUM: 144.1 MEQ/L
  TOTAL BILIRUBIN: 0.2 mg/dL
  TOTAL PROTEIN: 6 G/DL
  URIC ACID: 2.03 mg/dL
[4]
  ABSOLUTE BASOPHIL: 0 CELLS/uL
  ABSOLUTE EOSINOPHIL: 79.33 CELLS/uL
  ABSOLUTE LYMPHOCYTE: 16271.33 CELLS/uL
  ABSOLUTE MONOCYTE: 278 CELLS/uL
  ABSOLUTE SEGMENTED NEUTROPHIL: 1271.33 CELLS/uL
  BASOPHIL: 0%
  EOSINOPHIL: 0.33%
  ERYTHROCYTE COUNT: 5.66 x10E6/uL
  HEMATOCRIT: 35.67%
  HEMOGLOBIN: 14 G/DL
  LEUKOCYTE COUNT: 17.9 x10E3/uL
  LYMPHOCYTE: 92%
  MEAN CORPUSCULAR HEMOGLOBIN: 24.8 pg
  MEAN CORPUSCULAR HEMOGLOBIN CONCENTRATION: 39.27 G/DL
  MEAN CORPUSCULAR VOLUME: 63.03 fL
  MONOCYTE: 1.33%
  NEUTROPHIL: 6.33%
  NUCLEATED RED BLOOD CELLS: 0 /100WBC
  PLATELET COUNT: 1154.33 x10E3/uL
  ALANINE AMINOTRANSFERASE: 51 u/L
  ALBUMIN: 4.2 G/DL
  ALKALINE PHOSPHATASE: 328.67 u/L
  ASPARTATE AMINOTRANSFERASE: 76.67 u/L
  BLOOD UREA NITROGEN: 16.33 mg/dL
  CARBON DIOXIDE: 22.67 mmol/L
  CHLORIDE: 105 MEQ/L
  CHOLESTEROL: 69.67 mg/dL
  CREATINE PHOSPHOKINASE: 264.33 u/L
  CREATININE: 0.2 mg/dL
  GLUCOSE: 179.33 mg/dL
  LACTATE DEHYDROGENASE: 119.67 u/L
  LIPASE: 8.67 u/L
  PHOSPHORUS: 12.4 mg/dL
  POTASSIUM: 6.35 MEQ/L
  SODIUM: 146.23 MEQ/L
  TOTAL BILIRUBIN: 0.17 mg/dL
  TOTAL PROTEIN: 6.1 G/DL
  URIC ACID: 1.3 mg/dL
